Test results from patent US20240218022A1, “ANTI-VISTA MACROCYCLIC PEPTIDES AND COMPOSITIONS” (BRISTOL-MYERS SQUIBB COMPANY, priority 2022, published 2024).
pIC50: −log10 of the molar value. Positions of bridges follow the written chain, without caps; N, C: chain ends. Non-standard residues stand in square brackets, D forms with d. Residues, ends and D or L forms follow the SMILES beside them. 2Nal = N[C@@H](Cc1ccc2ccccc2c1)C(=O)O; Cit = NC(=O)NCCC[C@H](N)C(=O)O; NMeD = CN[C@@H](CC(=O)O)C(=O)O; NMeN = CN[C@@H](CC(N)=O)C(=O)O; NMeL = CN[C@@H](CC(C)C)C(=O)O; Ahp(2) = CCCCC[C@H](N)C(=O)O; NMeNle = CCCC[C@H](NC)C(=O)O; NHexGly = CCCCCCNCC(=O)O; Nle = CCCC[C@H](N)C(=O)O; Orn = NCCC[C@H](N)C(=O)O

Target: T1, mouse VISTA (mVISTA) (Mus musculus, UniProt Q9D659)
T1 construct: expressed in transfected cells; host or cells: Human embryonic kidney 293T cells
T1 sequence (Q9D659 33-308): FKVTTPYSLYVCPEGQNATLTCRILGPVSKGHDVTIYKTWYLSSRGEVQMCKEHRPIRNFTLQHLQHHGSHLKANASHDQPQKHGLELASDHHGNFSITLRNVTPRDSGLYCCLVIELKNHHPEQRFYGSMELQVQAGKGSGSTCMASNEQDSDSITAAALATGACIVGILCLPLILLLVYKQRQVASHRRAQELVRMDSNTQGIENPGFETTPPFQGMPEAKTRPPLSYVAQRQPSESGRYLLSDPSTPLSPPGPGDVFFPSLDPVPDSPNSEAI
Assay: Cell-Based Binding High-Content Assay For mVISTA (HC CBA mVISTA)
Settings: cell-based binding high-content assay, mVISTA; the 15th table; read-out: HC CBA mVISTA IC50
Outline: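 293T cells expressing mouse VISTA, with compounds added either after seeding ("no wash") or before seeding and then washed out after 1 h. Biotinylated peptide 2 nM for 30 min at room temperature, then detection with Alexa 647–streptavidin. After fixation with Hoechst stain, plates were high-content imaged; IC50 from four-parameter logistic fit.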

CCCCCCN1CC(=O)N[C@@H](Cc2ccc(O)cc2)C(=O)N[C@@H](CCCC)C(=O)N[C@@H](CC(N)=O)C(=O)N[C@@H](CCCNC(=N)N)C(=O)N(C)[C@@H](CC(=O)O)C(=O)N[C@@H](CCCCC)C(=O)N2CCC[C@H]2C(=O)N[C@@H](C(C)C)C(=O)N[C@@H](CC(=O)O)C(=O)N[C@H](C(=O)NCC(=O)O)CSCC(=O)N[C@@H](Cc2ccc3ccccc3c2)C(=O)N[C@@H](Cc2c[nH]c3ccccc23)C(=O)N[C@@H](CC(=O)O)C1=O [compound 1238] ({CH2CO}-[2Nal]WD[NHexGly]Y[Nle]NR[NMeD][Ahp(2)]PVDCG-OH; thioether N-14)
pIC50: 7.60

CCCCCCN1CC(=O)N[C@@H](Cc2ccc(O)cc2)C(=O)N[C@@H](CCCC)C(=O)N[C@@H](CC(N)=O)C(=O)N[C@@H](CCCNC(=N)N)C(=O)N(C)[C@@H](CC(C)C)C(=O)N[C@@H](CCCCC)C(=O)N2CCC[C@H]2C(=O)N[C@@H](C(C)C)C(=O)N[C@@H](CC(=O)O)C(=O)N[C@H](C(=O)NCC(=O)O)CSCC(=O)N[C@@H](Cc2ccc3ccccc3c2)C(=O)N[C@@H](Cc2c[nH]c3ccccc23)C(=O)N[C@@H](CC(=O)O)C1=O [compound 1239] ({CH2CO}-[2Nal]WD[NHexGly]Y[Nle]NR[NMeL][Ahp(2)]PVDCG-OH; thioether N-14)
pIC50: 8.49

CCCCCCN1CC(=O)N[C@@H](Cc2ccc(O)cc2)C(=O)N[C@@H](CCCC)C(=O)N[C@@H](CC(N)=O)C(=O)N[C@@H](CCCNC(=N)N)C(=O)N(C)[C@@H](CC(C)C)C(=O)N[C@@H](CCCCC)C(=O)N2CCC[C@H]2C(=O)N[C@@H](C(C)C)C(=O)N[C@@H](CC(=O)O)C(=O)N[C@H](C(=O)N[C@@H](CO)C(=O)O)CSCC(=O)N[C@@H](Cc2ccc3ccccc3c2)C(=O)N[C@@H](Cc2c[nH]c3ccccc23)C(=O)N[C@@H](CC(=O)O)C1=O [compound 1240] ({CH2CO}-[2Nal]WD[NHexGly]Y[Nle]NR[NMeL][Ahp(2)]PVDCS-OH; thioether N-14)
pIC50: 7.84

CCCCCCN1CC(=O)N[C@@H](Cc2ccc(O)cc2)C(=O)N[C@@H](CCCC)C(=O)N[C@@H](CC(N)=O)C(=O)N[C@@H](CCCNC(=N)N)C(=O)N(C)[C@@H](CC(N)=O)C(=O)N[C@@H](CCCCC)C(=O)N2CCC[C@H]2C(=O)N[C@@H](C(C)C)C(=O)N[C@@H](CC(=O)O)C(=O)N[C@H](C(=O)NCC(=O)O)CSCC(=O)N[C@@H](Cc2ccc3ccccc3c2)C(=O)N[C@@H](Cc2c[nH]c3ccccc23)C(=O)N[C@@H](CC(=O)O)C1=O [compound 1241] ({CH2CO}-[2Nal]WD[NHexGly]Y[Nle]NR[NMeN][Ahp(2)]PVDCG-OH; thioether N-14)
pIC50: 7.45

CCCCCCN1CC(=O)N[C@@H](Cc2ccc(O)cc2)C(=O)N[C@@H](CCCC)C(=O)N[C@@H](CC(=O)O)C(=O)N[C@@H](CCCNC(N)=O)C(=O)N(C)[C@@H](CCCC)C(=O)N[C@@H](CCCCC)C(=O)N2CCC[C@H]2C(=O)N[C@@H](C(C)C)C(=O)N[C@@H](CC(=O)O)C(=O)N[C@H](C(=O)N[C@@H](CC(=O)O)C(N)=O)CSCC(=O)N[C@@H](Cc2ccc3ccccc3c2)C(=O)N[C@@H](Cc2c[nH]c3ccccc23)C(=O)N[C@@H](CC(=O)O)C1=O [compound 1242] ({CH2CO}-[2Nal]WD[NHexGly]Y[Nle]D[Cit][NMeNle][Ahp(2)]PVDCD-NH2; thioether N-14)
pIC50: 8.05

CCCCCCN1CC(=O)N[C@@H](Cc2ccc(O)cc2)C(=O)N[C@@H](CCCC)C(=O)N[C@@H](CC(=O)O)C(=O)N[C@@H](CCCNC(=N)N)C(=O)N(C)[C@@H](CCCC)C(=O)N[C@@H](CCCCC)C(=O)N2CCC[C@H]2C(=O)N[C@@H](C(C)C)C(=O)N[C@@H](CC(=O)O)C(=O)N[C@H](C(=O)N[C@@H](CC(=O)O)C(N)=O)CSCC(=O)N[C@@H](Cc2ccc3ccccc3c2)C(=O)N[C@@H](Cc2c[nH]c3ccccc23)C(=O)N[C@@H](CC(=O)O)C1=O [compound 1243] ({CH2CO}-[2Nal]WD[NHexGly]Y[Nle]DR[NMeNle][Ahp(2)]PVDCD-NH2; thioether N-14)
pIC50: 7.70

CCCCCCN1CC(=O)N[C@@H](Cc2ccc(O)cc2)C(=O)N[C@@H](CCCC)C(=O)N[C@@H](CC(=O)O)C(=O)N[C@@H](CCCN)C(=O)N(C)[C@@H](CCCC)C(=O)N[C@@H](CCCCC)C(=O)N2CCC[C@H]2C(=O)N[C@@H](C(C)C)C(=O)N[C@@H](CC(=O)O)C(=O)N[C@H](C(=O)N[C@@H](CC(=O)O)C(N)=O)CSCC(=O)N[C@@H](Cc2ccc3ccccc3c2)C(=O)N[C@@H](Cc2c[nH]c3ccccc23)C(=O)N[C@@H](CC(=O)O)C1=O [compound 1244] ({CH2CO}-[2Nal]WD[NHexGly]Y[Nle]D[Orn][NMeNle][Ahp(2)]PVDCD-NH2; thioether N-14)
pIC50: 7.87

CCCCCCN1CC(=O)N[C@@H](Cc2ccc(O)cc2)C(=O)N[C@@H](CCCC)C(=O)N[C@@H](CC(N)=O)C(=O)N[C@@H](CCCNC(=N)N)C(=O)N(C)[C@@H](CCCC)C(=O)N[C@@H](CCCCC)C(=O)N2CCC[C@H]2C(=O)N[C@@H](C(C)C)C(=O)N[C@@H](CC(=O)O)C(=O)N[C@H](C(=O)NCC(=O)O)CSCC(=O)N[C@@H](Cc2ccc3ccccc3c2)C(=O)N[C@@H](Cc2c[nH]c3ccccc23)C(=O)N[C@@H](CC(=O)O)C1=O [compound 1245] ({CH2CO}-[2Nal]WD[NHexGly]Y[Nle]NR[NMeNle][Ahp(2)]PVDCG-OH; thioether N-14)
pIC50: 8.21

CCCCCCN1CC(=O)N[C@@H](Cc2ccc(O)cc2)C(=O)N[C@@H](CCCC)C(=O)N[C@@H](CC(N)=O)C(=O)N[C@@H](CCCNC(=N)N)C(=O)N(C)[C@@H](CCCC)C(=O)N[C@@H](CCCCC)C(=O)N2CCC[C@H]2C(=O)N[C@@H](C(C)C)C(=O)N[C@@H](CCCNC(=N)N)C(=O)N[C@H](C(=O)NCC(=O)O)CSCC(=O)N[C@@H](Cc2ccc3ccccc3c2)C(=O)N[C@@H](Cc2c[nH]c3ccccc23)C(=O)N[C@@H](CC(=O)O)C1=O [compound 1246] ({CH2CO}-[2Nal]WD[NHexGly]Y[Nle]NR[NMeNle][Ahp(2)]PVRCG-OH; thioether N-14)
pIC50: 7.60

CCCCCCN1CC(=O)N[C@@H](Cc2ccc(O)cc2)C(=O)N[C@@H](CCCC)C(=O)N[C@@H](CC(N)=O)C(=O)N[C@@H](CCCNC(=N)N)C(=O)N(C)[C@@H](CCCC)C(=O)N[C@@H](CCCCC)C(=O)N2CCC[C@H]2C(=O)N[C@@H](C(C)C)C(=O)N[C@@H](CO)C(=O)N[C@H](C(=O)NCC(=O)O)CSCC(=O)N[C@@H](Cc2ccc3ccccc3c2)C(=O)N[C@@H](Cc2c[nH]c3ccccc23)C(=O)N[C@@H](CC(=O)O)C1=O [compound 1247] ({CH2CO}-[2Nal]WD[NHexGly]Y[Nle]NR[NMeNle][Ahp(2)]PVSCG-OH; thioether N-14)
pIC50: 7.45

CCCCCCN1CC(=O)N[C@@H](Cc2ccc(O)cc2)C(=O)N[C@@H](CCCC)C(=O)N[C@@H](CC(N)=O)C(=O)N[C@@H](CCCNC(=N)N)C(=O)N(C)[C@@H](CCCC)C(=O)N[C@@H](CCCCC)C(=O)N2CCC[C@H]2C(=O)N[C@@H](C(C)C)C(=O)N[C@@H](C(C)C)C(=O)N[C@H](C(=O)NCC(=O)O)CSCC(=O)N[C@@H](Cc2ccc3ccccc3c2)C(=O)N[C@@H](Cc2c[nH]c3ccccc23)C(=O)N[C@@H](CC(=O)O)C1=O [compound 1248] ({CH2CO}-[2Nal]WD[NHexGly]Y[Nle]NR[NMeNle][Ahp(2)]PVVCG-OH; thioether N-14)
pIC50: 7.42

CCCCCCN1CC(=O)N[C@@H](Cc2ccc(O)cc2)C(=O)N[C@@H](CCCC)C(=O)N[C@@H](CC(N)=O)C(=O)N[C@@H](CCCNC(=N)N)C(=O)N(C)[C@@H](CCCC)C(=O)N[C@@H](CCCCC)C(=O)N2CCC[C@H]2C(=O)N[C@@H](C(C)C)C(=O)N[C@@H](CC(N)=O)C(=O)N[C@H](C(=O)NCC(=O)O)CSCC(=O)N[C@@H](Cc2ccc3ccccc3c2)C(=O)N[C@@H](Cc2c[nH]c3ccccc23)C(=O)N[C@@H](CC(=O)O)C1=O [compound 1249] ({CH2CO}-[2Nal]WD[NHexGly]Y[Nle]NR[NMeNle][Ahp(2)]PVNCG-OH; thioether N-14)
pIC50: 7.86

CCCCCCN1CC(=O)N[C@@H](Cc2ccc(O)cc2)C(=O)N[C@@H](CCCCC)C(=O)N[C@@H](CC(N)=O)C(=O)N[C@@H](CCCNC(=N)N)C(=O)N(C)[C@@H](CCCC)C(=O)N[C@@H](CCCCC)C(=O)N2CCC[C@H]2C(=O)N[C@@H](C(C)C)C(=O)N[C@@H](C(C)C)C(=O)N[C@H](C(=O)NCC(=O)O)CSCC(=O)N[C@@H](Cc2ccc3ccccc3c2)C(=O)N[C@@H](Cc2c[nH]c3ccccc23)C(=O)N[C@@H](CC(=O)O)C1=O [compound 1250] ({CH2CO}-[2Nal]WD[NHexGly]Y[Ahp(2)]NR[NMeNle][Ahp(2)]PVVCG-OH; thioether N-14)
pIC50: 7.66

CCCCCCN1CC(=O)N[C@@H](Cc2ccc(O)cc2)C(=O)N[C@@H](CCCCC)C(=O)N[C@@H](CC(N)=O)C(=O)N[C@@H](CCCNC(=N)N)C(=O)N(C)[C@@H](CCCC)C(=O)N[C@@H](CCCCC)C(=O)N2CCC[C@H]2C(=O)N[C@@H](C(C)C)C(=O)N[C@@H](CC(=O)O)C(=O)N[C@H](C(=O)NCC(=O)O)CSCC(=O)N[C@@H](Cc2ccc3ccccc3c2)C(=O)N[C@@H](Cc2c[nH]c3ccccc23)C(=O)N[C@@H](CC(=O)O)C1=O [compound 1251] ({CH2CO}-[2Nal]WD[NHexGly]Y[Ahp(2)]NR[NMeNle][Ahp(2)]PVDCG-OH; thioether N-14)
pIC50: 7.90

CCCCCCN1CC(=O)N[C@@H](Cc2ccc(O)cc2)C(=O)N[C@@H](CCCCC)C(=O)N[C@@H](CC(N)=O)C(=O)N[C@@H](CCCNC(=N)N)C(=O)N(C)[C@@H](CCCC)C(=O)N[C@@H](CCCCC)C(=O)N2CCC[C@H]2C(=O)N[C@@H](C(C)C)C(=O)N[C@@H](CO)C(=O)N[C@H](C(=O)NCC(=O)O)CSCC(=O)N[C@@H](Cc2ccc3ccccc3c2)C(=O)N[C@@H](Cc2c[nH]c3ccccc23)C(=O)N[C@@H](CC(=O)O)C1=O [compound 1252] ({CH2CO}-[2Nal]WD[NHexGly]Y[Ahp(2)]NR[NMeNle][Ahp(2)]PVSCG-OH; thioether N-14)
pIC50: 8.19
